Experimental findings from ChEMBL document CHEMBL3808355, “Systematic evaluation of methyl ester bioisosteres in the context of developing alkenyldiarylmethanes (ADAMs) as non-nucleoside reverse transcriptase inhibitors (NNRTIs) for anti-HIV-1 chemotherapy” (Bioorg Med Chem, 2016) are described below.

SMILES strings stand for the structures.

Data set [1] relates to Human immunodeficiency virus 1. The data set can be described thus: Selectivity index, ratio of IC50 for antiviral activity against HIV-1 3B expressing reverse transcriptase K103N mutant infected in human MT4 cells to IC50 for antiviral activity against HIV-1 3B expressing wild type reverse transcriptase infected in human MT4 cells. The format is functional.
Data set [2] deals with Human immunodeficiency virus 1. The data set can be described thus: Antiviral activity against HIV-1 3B expressing wild type reverse transcriptase infected in human MT4 cells assessed as inhibition of virus-induced cytopathic effect by MTT assay. The format is functional, organism-based. Particulars: Human immunodeficiency virus 1, 3B. A general note: Damage to the host cells serves as the signal in cytopathic effect assays.

Data set [3] relates to Human immunodeficiency virus 1. In words: Antiviral activity against HIV-1 3B expressing reverse transcriptase K103N mutant infected in human MT4 cells assessed as inhibition of virus-induced cytopathic effect by MTT assay. Particulars: Human immunodeficiency virus 1, 3B. The data set is classed as functional, organism-based.
The target of data set [4] is Human immunodeficiency virus type 1 reverse transcriptase (Human immunodeficiency virus 1, UniProt Q72547, K103N). The data set can be described thus: Inhibition of HIV-1 BH10 recombinant reverse transcriptase K103N mutant expressed in Escherichia coli assessed as incorporation of [32P]GTP into poly(rA)/oligo(dT) as template primer. Also noted: species or system Human immunodeficiency virus type 1 BH10.

Data set [5] in a line: Cytotoxicity against mock-infected human MT4 cells. The data set is classed as cell-based.
Data set [6] can be described thus: Inhibition of wild type HIV-1 BH10 recombinant reverse transcriptase expressed in Escherichia coli assessed as incorporation of [32P]GTP into poly(rA)/oligo(dT) as template primer. Also noted: species or system Human immunodeficiency virus type 1 BH10.
Data set [7] relates to Human immunodeficiency virus 1. In words: Selectivity index, ratio of IC50 for inhibition of HIV-1 BH10 reverese transcriptase K103N mutant expressed in Escherichia coli to IC50 for inhibition of wild type HIV-1 BH10 reverse transcriptase expressed in Escherichia coli.
The nature of data set [8]: Selectivity index, ratio of CC50 for cytotoxicity against mock-infected human CEM-SS cells to EC50 for antiviral activity against HIV-1 RF. The data set is classed as toxicity, cell-based. Particulars: read-out: Ratio CC50/EC50.
In data set [9] the test system is Human immunodeficiency virus 1. The data set can be described thus: Antiviral activity against HIV-1 RF infected in human CEM-SS cells assessed as inhibition of virus-induced cytopathic effect by XTT assay. The format is functional, organism-based. The conditions noted are these: Human immunodeficiency virus 1, RF.
A short description of data set [10]: Selectivity index, ratio of CC50 for cytotoxicity against mock-infected human MT4 cells to EC50 for antiviral activity against HIV-1 3B. The data set is classed as toxicity, cell-based. The conditions noted are these: read-out: Ratio CC50/EC50.
Data set [11] relates to Human immunodeficiency virus 1. In words: Antiviral activity against HIV-1 3B infected in human MT4 cells assessed as inhibition of virus-induced cytopathic effect by MTT assay. The conditions noted are these: Human immunodeficiency virus 1, 3B. The data set is classed as functional, organism-based.
A short description of data set [12]: Cytotoxicity against mock-infected human CEM-SS cells. The data set is classed as cell-based.
Data set [13] can be described thus: Inhibition of HIV-1 BH10 recombinant reverse transcriptase expressed in Escherichia coli assessed as incorporation of [32P]GTP into poly(rC)/oligo(dG) as template primer. On the set-up: species or system Human immunodeficiency virus type 1 BH10.

Take `COc1c(C)cc(/C(=C\CCCc2nnc(C)o2)c2cc(C)c3oc(=O)n(C)c3c2)cc1C(=O)SC`: the “Ratio IC50” value in data set [1] and in data set [7] was 2 in each case. Moreover, the EC50 amounted to 0.2 µM in data set [2] and 0.43 µM in [3]. Besides, the values for the IC50 in data set [4] and in data set [6] were 0.91 µM and 0.47 µM, respectively. Further, the CC50 in [5] turned out to be 5.36 µM.

As for `CO/N=C(\Cl)c1cc(/C(=C\CCCc2nnc(C)o2)c2cc(C)c3oc(=O)n(C)c3c2)cc(C)c1OC`, the “Ratio IC50” value in data set [1] and in data set [7] was 6 in each case. Besides, the EC50 in data set [2] came to 0.78 µM; in data set [3], 7.78 µM; in data set [9] it was 1.08 µM; in [11] it was 0.74 µM. Also, the IC50 was 21.1 µM in data set [4], 3.44 µM in data set [6] and 8.23 µM in data set [13]. Besides, the selectivity ratio in [8] came out at 4; in data set [10], 27. Further, the results for the CC50 in data set [5] and in data set [12] were 18.3 µM and 4.67 µM, respectively.

Take `CO/N=C(\F)c1cc(/C(=C\CCCc2nnc(C)o2)c2cc(C)c3oc(=O)n(C)c3c2)cc(C)c1OC`: the “Ratio IC50” value in data set [1] and in data set [7] was 6 each time. Further, the EC50 in data set [2] stood at 0.55 µM; in data set [3], 4.03 µM; in [9], 0.52 µM; in [11], 0.35 µM. In addition, the IC50 in data set [4] stood at 14.3 µM; in [6], 2.49 µM; in data set [13], 3.4 µM. Besides, the selectivity ratio in data set [8] was found to be 12; in data set [10] it was 76. Besides, the CC50 in [5] amounted to 24 µM; in data set [12], 6.45 µM.

Usually EC50 stands for the concentration needed to bring the measured effect to its halfway point. As a reminder, the IC50 is the concentration that gives 50% inhibition. As usually defined, the CC50 is the concentration giving 50% cytotoxicity. High values mean lower toxicity to the cells, low ones greater toxicity to the cells.
